These results are taken from patent US11021445B2, “Carboxylic acid derivative as AT2R receptor antagonist” (SHANDONG DANHONG PHARMACEUTICAL CO., LTD., priority 2017, dated 2021).

In brackets after ≈: the same amount, converted by molar mass. Some results are limits rather than exact numbers.

This data set can be described thus: Determination of kinetic solubility. The class given is physicochemical. As to conditions: buffer solution pH 7.4, aqueous buffer, kinetic from dmso stock, pH 7.4, 24 hours at room temperature, theoretical maximum 200 μM. Here is the method:
The to-be-tested compound was dissolved in DMSO to prepare a 10 mmol/L stock solution. 980 μL of dissolution medium was pipetted into a 2 mL screw-capped glass vial by using a pipette (Eppendorf Research Company). 20 μL of the stock solution of each test compound and the QC sample were added to a buffer solution corresponding to a kinetic detection solution of pH 7.4. The final concentrations of the test compound and DMSO solution were 200 μM and 2%, respectively. The cover of the medicine bottle was screwed. The theoretical maximum concentration is 200 μM. The mixture was shaken at 880 rpm for 24 hours at room temperature. The vial was centrifuged for 30 minutes at 13,000 rpm. 200 μL of the supernatant was added to a 96-well plate by using a digital pipette. The solubility of the test compound was determined by high performance liquid chromatography, and the experimental results are shown in Table 2.
For `COc1ccc2c(c1OCc1ccccc1)C[C@@H](C(=O)O)N(C(=O)C(c1ccccc1)c1ccccc1)C2` [EMA-401, reference compound], the solubility at 24 h turned out to be 192 µM (≈ 97.3 µg/mL).

In turn, `COc1ccc2c(c1OCc1ccccc1)C[C@@H](C(=O)O)N(C(=O)[C@@H](O[C@H]1CC[C@@H](O)CC1)c1ccccc1)C2` [Compound 63] returned a solubility at 24 h of 190 µM (≈ 104 µg/mL). The solubility at 24 h values of the last two compounds are within 1.5-fold of each other. For `COc1ccc2c(c1OCc1ccccc1)C[C@@H](C(=O)O)N(C(=O)[C@@H](OC1CCCC1)c1ccccc1)C2` [Compound 37] the value was over 200 µM; for `COc1ccc2c(c1OCc1ccccc1)C[C@@H](C(=O)O)N(C(=O)[C@@H](OC1CC(F)(F)C1)c1ccccc1)C2` [Compound 51], 190 µM (≈ 102 µg/mL); for `O=C(O)[C@@H]1Cc2c(ccc(Cl)c2OCc2ccccc2)CN1C(=O)[C@@H](OC1CCCC1)c1ccccc1` [Compound 107], 181 µM (≈ 94.2 µg/mL).

Broadly, the solubility is how much of the substance goes into solution per volume. A high value points to much dissolved substance.
